Measurements taken from PMC6375636, “Monotherapy with a low-dose lipopeptide HIV fusion inhibitor maintains long-term viral suppression in rhesus macaques” (PLoS Pathogens, 2019).
Where two headings read alike, the source gives them in different places. Peptide text beside a SMILES is read from it. * marks the point of attachment. Stearoyl = CCCCCCCCCCCCCCCCCC(=O)*; Palmitoyl = CCCCCCCCCCCCCCCC(=O)*

How the values were obtained:
Format in all cases: cell-based
[1] = molecular target: HIV-1 CH040.c/2625; conditions: Table 2; CH040.c/2625, subtype B, R5; mean ± SD of 3 assays in triplicate
How it was run: (§1)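 Env-pseudotyped luciferase-reporter viruses (pSG3Δenv backbone) or replication-competent clones made in HEK293T. 3-fold inhibitor dilutions preincubated 1 h at room temperature with 100 TCID50 virus, then added to TZM-bl cells (10^4/well) for 48 h at 37 °C; inhibition read as luciferase activity.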

[2] = molecular target: HIV-1 LAI; conditions: Table 2, subtype B, X4, mean ± SD of 3 assays in triplicate
How it was run: as §1

[3] = molecular target: HIV-1 NL4-3; conditions: Table 2; NL4-3, subtype B, X4; mean ± SD of 3 assays in triplicate
How it was run: as §1

[4] = molecular target: HIV-1 R3A; conditions: Table 2, subtype B, R5X4, mean ± SD of 3 assays in triplicate
How it was run: as §1

[5] = molecular target: HIV-1 RHPA.c/2635; conditions: Table 2; RHPA.c/2635, subtype B, R5; mean ± SD of 3 assays in triplicate
How it was run: as §1

[6] = molecular target: HIV-1 SG3; conditions: Table 2; SG3, subtype B, X4; mean ± SD of 3 assays in triplicate
How it was run: as §1

[7] = molecular target: HIV-1 THRO.c/2626; conditions: Table 2; THRO.c/2626, subtype B, R5; mean ± SD of 3 assays in triplicate
How it was run: as §1

[8] = molecular target: HIV-1 WITO.c/2474; conditions: Table 2; WITO.c/2474, subtype B, R5; mean ± SD of 3 assays in triplicate
How it was run: as §1

[9] = system: HIV-1 pseudovirus, primary Env 246_F3_C10_2; conditions: Env 246_F3_C10_2, subtype A/C; mean ± SD of 3 assays in triplicate
How it was run: as §1

[10] = system: HIV-1 pseudovirus, primary Env 92UG037.8; conditions: Env 92UG037.8, subtype A; mean ± SD of 3 assays in triplicate
How it was run: as §1

[11] = system: HIV-1 pseudovirus, primary Env B02; conditions: Env B02, subtype B'; mean ± SD of 3 assays in triplicate
How it was run: as §1

[12] = system: HIV-1 pseudovirus, primary Env B04; conditions: Env B04, subtype B'; mean ± SD of 3 assays in triplicate
How it was run: as §1

[13] = system: HIV-1 pseudovirus, primary Env BJOX002000.03.2; conditions: Env BJOX002000.03.2, subtype B/C; mean ± SD of 3 assays in triplicate
How it was run: as §1

[14] = system: HIV-1 pseudovirus, primary Env CAP45.2.00.G3; conditions: Env CAP45.2.00.G3, subtype C; mean ± SD of 3 assays in triplicate
How it was run: as §1

[15] = system: HIV-1 pseudovirus, primary Env CE1176_A3; conditions: Env CE1176_A3, subtype C; mean ± SD of 3 assays in triplicate
How it was run: as §1

[16] = system: HIV-1 pseudovirus, primary Env CH119.10; conditions: Env CH119.10, subtype B/C; mean ± SD of 3 assays in triplicate
How it was run: as §1

[17] = system: HIV-1 pseudovirus, primary Env CH120.6; conditions: Env CH120.6, subtype B/C; mean ± SD of 3 assays in triplicate
How it was run: as §1

[18] = system: HIV-1 pseudovirus, primary Env CH64.20; conditions: Env CH64.20, subtype B/C; mean ± SD of 3 assays in triplicate
How it was run: as §1

[19] = system: HIV-1 pseudovirus, primary Env CNE55; conditions: Env CNE55, subtype A/E; mean ± SD of 3 assays in triplicate
How it was run: as §1

[20] = system: HIV-1 pseudovirus, primary Env Du156; conditions: Env Du156, subtype C; mean ± SD of 3 assays in triplicate
How it was run: as §1

[21] = system: HIV-1 pseudovirus, primary Env HIV_25710–2.43; conditions: Env HIV_25710–2.43, subtype C; mean ± SD of 3 assays in triplicate
How it was run: as §1

[22] = system: HIV-1 pseudovirus, primary Env JRFL; conditions: subtype B, mean ± SD of 3 assays in triplicate
How it was run: as §1

[23] = system: HIV-1 pseudovirus, primary Env PVO; conditions: subtype B, mean ± SD of 3 assays in triplicate
How it was run: as §1

[24] = system: HIV-1 pseudovirus, primary Env SC422661.8; conditions: Env SC422661.8, subtype B; mean ± SD of 3 assays in triplicate
How it was run: as §1

[25] = system: HIV-1 pseudovirus, primary Env X1632-S2-B10; conditions: Env X1632-S2-B10, subtype G; mean ± SD of 3 assays in triplicate
How it was run: as §1

[26] = system: HIV-1 pseudovirus, primary Env pREJO4541; conditions: Env pREJO4541, subtype B; mean ± SD of 3 assays in triplicate
How it was run: as §1

[27] = molecular target: HIV-1JRCSF
How it was run: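 HEK293T-derived virus (Env + pSG3Δenv pseudovirus, or molecular-clone isolate), titred as TCID50 on TZM-bl; 100 TCID50 + 3-fold cmpd dilutions, 1 h RT; onto TZM-bl 10^4/well, 48 h 37°C; luciferase read-out.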

[28] = Fig 1, replication-competent virus, mean ± SD of three assays in triplicate, read-out: Anti-HIV activity (IC50, pM) JRCSF infection
[29] = Table 2, JR-CSF, subtype B, R5, mean ± SD of 3 assays in triplicate, read-out: Mean IC50

With `CCCCCCCCCCCCCCCC(=O)NCCCC[C@H](NC(=O)[C@H](CCC(=O)O)NC(=O)[C@H](CC(C)C)NC(=O)[C@H](CCCCN)NC(=O)[C@H](CCCCN)NC(=O)[C@H](CC(C)C)NC(=O)[C@H](CCC(=O)O)NC(=O)[C@H](CCC(=O)O)NC(=O)[C@H](CCC(=O)O)NC(=O)[C@H](CC(N)=O)NC(=O)[C@H](CCCCN)NC(=O)[C@H](CCCCN)NC(=O)[C@H](CCC(N)=O)NC(=O)[C@H](CCC(N)=O)NC(=O)[C@H](CCC(=O)O)NC(=O)[C@H](CCC(=O)O)NC(=O)[C@H](C)NC(=O)[C@H](CCCCN)NC(=O)[C@H](CCCCN)NC(=O)[C@H](CC(C)C)NC(=O)[C@H](CC(C)C)NC(=O)[C@H](CCC(=O)O)NC(=O)[C@H](CCC(=O)O)NC(=O)[C@@H](NC(=O)[C@H](CCCCN)NC(=O)[C@H](CCC(N)=O)NC(=O)[C@H](CCC(=O)O)NC(=O)[C@H](Cc1c[nH]c2ccccc12)NC(C)=O)[C@@H](C)CC)C(N)=O` [LP-52, reference compound] (Ac-WEQKIEELLKKAEEQQKKNEEELKKLEK(Palmitoyl)-NH2) the IC50 [1] was 66.7 ± 9.1 pM, the IC50 [2] was 12.2 ± 0.93 pM and the IC50 [3] was 4.5 ± 2.49 pM. For the same compound, the IC50 [4] was 13.6 ± 1.99 pM, the IC50 [5] was 9.42 ± 1.34 pM and the IC50 [6] was 5.22 ± 1.89 pM. The IC50 [7] was 27.1 ± 4.61 pM, the IC50 [8] was 5.29 ± 1.61 pM and the IC50 [9] was 17.5 ± 1.91 pM. For the same compound, the IC50 [10] was 28.2 ± 8.27 pM, the IC50 [11] was 14.9 ± 1.55 pM and the IC50 [12] was 13.4 ± 0.94 pM. For the same compound, the IC50 [13] was 36.8 ± 2.93 pM, the IC50 [14] was 7.58 ± 0.64 pM and the IC50 [15] was 11.1 ± 1.52 pM. It also gave an IC50 [16] of 10.7 ± 1.62 pM, an IC50 [17] of 19.9 ± 1.48 pM and an IC50 [18] of 9.71 ± 0.84 pM. It also gave an IC50 [19] of 17.3 ± 1.41 pM, an IC50 [20] of 4.66 ± 0.75 pM and an IC50 [21] of 14.1 ± 1.91 pM. The IC50 [22] was 46.7 ± 6.96 pM, the IC50 [23] was 29.7 ± 7.83 pM and the IC50 [24] was 9.39 ± 1.76 pM. It also gave an IC50 [25] of 24.5 ± 2.39 pM, an IC50 [26] of 7.22 ± 0.85 pM and an IC50 [27, 28] of 7.47 ± 1.9 pM. For the same compound, the IC50 [27, 29] was 8.02 ± 3.59 pM.

`CCCCCCCCCCCCCCCCCC(=O)NCCCC[C@H](NC(=O)[C@H](CCC(=O)O)NC(=O)[C@H](CC(C)C)NC(=O)[C@H](CCCCN)NC(=O)[C@H](CCCCN)NC(=O)[C@H](CC(C)C)NC(=O)[C@H](CCC(=O)O)NC(=O)[C@H](CCC(=O)O)NC(=O)[C@H](CCC(=O)O)NC(=O)[C@H](CC(N)=O)NC(=O)[C@H](CCCCN)NC(=O)[C@H](CCCCN)NC(=O)[C@H](CCC(N)=O)NC(=O)[C@H](CCC(N)=O)NC(=O)[C@H](CCC(=O)O)NC(=O)[C@H](CCC(=O)O)NC(=O)[C@H](C)NC(=O)[C@H](CCCCN)NC(=O)[C@H](CCCCN)NC(=O)[C@H](CC(C)C)NC(=O)[C@H](CC(C)C)NC(=O)[C@H](CCC(=O)O)NC(=O)[C@H](CCC(=O)O)NC(=O)[C@@H](NC(=O)[C@H](CCCCN)NC(=O)[C@H](CCC(N)=O)NC(=O)[C@H](CCC(=O)O)NC(=O)[C@H](Cc1c[nH]c2ccccc12)NC(C)=O)[C@@H](C)CC)C(N)=O` [LP-80] (Ac-WEQKIEELLKKAEEQQKKNEEELKKLEK(Stearoyl)-NH2) gave an IC50 [1] of 22.7 ± 5.55 pM, an IC50 [2] of 5.85 ± 0.86 pM and an IC50 [3] of 2.45 ± 0.51 pM. It also gave an IC50 [4] of 5.67 ± 0.85 pM, an IC50 [5] of 4.81 ± 1.98 pM and an IC50 [6] of 1.8 ± 0.42 pM. The IC50 [7] was 14.9 ± 1.93 pM, the IC50 [8] was 3.38 ± 1.09 pM and the IC50 [9] was 4.05 ± 0.47 pM. It also gave an IC50 [10] of 3.72 ± 1 pM, an IC50 [11] of 8.9 ± 1.03 pM and an IC50 [12] of 3.81 ± 1.08 pM. The IC50 [13] was 8.48 ± 0.08 pM, the IC50 [14] was 1.69 ± 0.48 pM and the IC50 [15] was 2.94 ± 0.19 pM. For the same compound, the IC50 [16] was 4.7 ± 0.35 pM, the IC50 [17] was 10.6 ± 1.02 pM and the IC50 [18] was 5.75 ± 0.19 pM. The IC50 [19] was 1.11 ± 0.18 pM, the IC50 [20] was 1.1 ± 0.35 pM and the IC50 [21] was 3.2 ± 0.68 pM. For the same compound, the IC50 [22] was 10.4 ± 2.25 pM, the IC50 [23] was 13 ± 1.67 pM and the IC50 [24] was 2.55 ± 0.77 pM. The IC50 [25] was 5.56 ± 0.76 pM, the IC50 [26] was 1.4 ± 0.61 pM and the IC50 [27, 28] was 2.45 pM. It also gave an IC50 [27, 29] of 4.02 ± 2.63 pM.
